Test results: US20150374673A1, “Combination Therapy for the Treatment of Nosocomial Pneumonia” (priority 2013, published 2015)

Experiments:
Experiment in all cases: Checkerboard assay, mean FICI
Type in all cases: cell-based
E. cloacae = test system: E. cloacae
Procedure: (§1) All MIC determinations including those performed in the checkerboard assay were done in cation-adjusted Mueller-Hinton broth (purchased from Becton Dickinson, Oxford UK).
(§2) Initial MIC data were determined by microbroth dilution methods as recommended by CLSI (2012b). Checkerboards were made in accordance with the method given by Pillai et. al., ? Antimicrobial Combinations in Antibiotics, LABORATORY MEDICINE (Lorian Ed., 3rd Ed. (2003)) p. 365-440 as per standard microbroth dilution tests but with agents in combination. […] A final avibactam concentration of 4 mg/L was used throughout the study. Antibacterial agents were combined into microtitre plates using the Evolution III liquid handling system.
(§3) Checkerboard plates were inoculated and incubated in accordance with CLSI guidelines (2012b) at 35±2° C. in ambient air for 16-20 h. MICs were recorded the following day as the lowest concentration or combination of concentrations required to inhibit all visible growth. From the MIC data, FICIs were calculated for each checkerboard according to the method of Meletiadis et. al., Defining Fractional Inhibitory Concentration Index Cutoffs for Additive Interactions Based on Self-Drug Additive Combinations, Monte Carlo Simulation Analysis and in vitro-in vivo Correlation Data for Antifungal Drug Combinations Against Aspergillus fumigatus, AAC 54:602-09 (2010).
(§4) FICI=FICA+FICB=(CA/MICA)+(CB/MICB)
(§5) As each checkerboard gives a number of FICI values, an arithmetic mean is calculated from all values to give the mean FICI for two agents combined against one isolate. Mean FICIs were interpreted by the following criteria given by Odds (2003) which are now the accepted criteria by most journals: […]

K. pneumoniae = test system: K. pneumoniae
Procedure: as §1, §2, §3, §4, §5

P. aeruginosa = test system: P. aeruginosa
Procedure: as §1, §2, §3, §4, §5

E. coli = test system: E. coli
Procedure: as §1, §2, §3, §4, §5

S. aureus = test system: S. aureus
Procedure: as §1, §2, §3, §4, §5

CC(C)(O/N=C(\C(=O)N[C@@H]1C(=O)N2C(C(=O)[O-])=C(C[n+]3ccccc3)CS[C@H]12)c1csc(N)n1)C(=O)O [ceftazidime, (6R,7R)-7-[[(2Z)-2-(2-amino-1,3-thiazol-4-yl)-2-(1-hydroxy-2-methyl-1-oxopropan-2-yl)oxyiminoacetyl]amino]-8-oxo-3-(pyridin-1-ium-1-ylmethyl)-5-thia-1-azabicyclo[4.2.0]oct-2-ene-2-carboxylate pentahydrate]
Mean FICI (E. cloacae; with Col, isolate 2 E. cloacae Derepressed AmpC): 1.54 | Mean FICI (E. cloacae; with Col, isolate 3 E. cloacae Derepressed AmpC): 1.12 | Mean FICI (E. cloacae; with Lev, isolate 2 E. cloacae Derepressed AmpC): 0.99 | Mean FICI (E. cloacae; with Lev, isolate 3 E. cloacae Derepressed AmpC): 0.81 | Mean FICI (E. cloacae; with Tig, isolate 2 E. cloacae Derepressed AmpC): 0.93 | Mean FICI (E. cloacae; with Tig, isolate 3 E. cloacae Derepressed AmpC): 1.05 | Mean FICI (E. cloacae; with Tob, isolate 3 E. cloacae Derepressed AmpC): 0.73 | Mean FICI (K. pneumoniae; with Col, isolate 10 K. pneumoniae TEM-4): 0.85 | Mean FICI (K. pneumoniae; with Col, isolate 11 K. pneumoniae CTX-M-15): 1.54 | Mean FICI (K. pneumoniae; with Col, isolate 12 K. pneumoniae SHV-12): 1.40 | Mean FICI (K. pneumoniae; with Col, isolate 14 K. pneumoniae KPC-3): 1.05 | Mean FICI (K. pneumoniae; with Lev, isolate 9 K. pneumoniae Basal MICs): 0.96 | Mean FICI (K. pneumoniae; with Lev, isolate 10 K. pneumoniae TEM-4): 1.13 | Mean FICI (K. pneumoniae; with Tig, isolate 11 K. pneumoniae CTX-M-15): 0.94 | Mean FICI (K. pneumoniae; with Tig, isolate 12 K. pneumoniae SHV-12): 0.97 | Mean FICI (K. pneumoniae; with Tig, isolate 13 K. pneumoniae KPC-3): 1.99 | Mean FICI (K. pneumoniae; with Tig, isolate 14 K. pneumoniae KPC-3): 0.74 | Mean FICI (K. pneumoniae; with Tob, isolate 9 K. pneumoniae Basal MICs): 1.55 | Mean FICI (K. pneumoniae; with Tob, isolate 10 K. pneumoniae TEM-4): 0.64 | Mean FICI (K. pneumoniae; with Tob, isolate 11 K. pneumoniae CTX-M-15): 1.05 | Mean FICI (K. pneumoniae; with Tob, isolate 12 K. pneumoniae SHV-12): 1.04 | Mean FICI (K. pneumoniae; with Tob, isolate 13 K. pneumoniae KPC-3): 1.12 | Mean FICI (K. pneumoniae; with Tob, isolate 14 K. pneumoniae KPC-3): 0.91 | Mean FICI (K. pneumoniae; with Tob, isolate 15 K. pneumoniae KPC-2): 1.05 | Mean FICI (P. aeruginosa; with Col, isolate 16 P. aeruginosa Basal MICs): 1.24 | Mean FICI (P. aeruginosa; with Col, isolate 17 P. aeruginosa Derepressed AmpC): 1.21 | Mean FICI (P. aeruginosa; with Col, isolate 18 P. aeruginosa Derepressed AmpC): 1.23 | Mean FICI (P. aeruginosa; with Col, isolate 19 P. aeruginosa PER): 1.43 | Mean FICI (P. aeruginosa; with Col, isolate 20 P. aeruginosa KPC-2): 1.21 | Mean FICI (P. aeruginosa; with Col, isolate 21 P. aeruginosa KPC-2): 1.34 | Mean FICI (P. aeruginosa; with Lev, isolate 16 P. aeruginosa Basal MICs): 1.19 | Mean FICI (P. aeruginosa; with Lev, isolate 17 P. aeruginosa Derepressed AmpC): 1.10 | Mean FICI (P. aeruginosa; with Lev, isolate 18 P. aeruginosa Derepressed AmpC): 1.21 | Mean FICI (P. aeruginosa; with Lev, isolate 19 P. aeruginosa PER): 0.99 | Mean FICI (P. aeruginosa; with Lev, isolate 20 P. aeruginosa KPC-2): 1.13 | Mean FICI (P. aeruginosa; with Lev, isolate 21 P. aeruginosa KPC-2): 1.12 | Mean FICI (P. aeruginosa; with Tig, isolate 16 P. aeruginosa Basal MICs): 1.05 | Mean FICI (P. aeruginosa; with Tig, isolate 17 P. aeruginosa Derepressed AmpC): 1.23 | Mean FICI (P. aeruginosa; with Tig, isolate 18 P. aeruginosa Derepressed AmpC): 1.15 | Mean FICI (P. aeruginosa; with Tig, isolate 19 P. aeruginosa PER): 1.13 | Mean FICI (P. aeruginosa; with Tig, isolate 20 P. aeruginosa KPC-2): 1.40 | Mean FICI (P. aeruginosa; with Tig, isolate 21 P. aeruginosa KPC-2): 1.23 | Mean FICI (P. aeruginosa; with Tob, isolate 16 P. aeruginosa Basal MICs): 1.11 | Mean FICI (P. aeruginosa; with Tob, isolate 17 P. aeruginosa Derepressed AmpC): 1.05 | Mean FICI (P. aeruginosa; with Tob, isolate 18 P. aeruginosa Derepressed AmpC): 0.89 | Mean FICI (P. aeruginosa; with Tob, isolate 19 P. aeruginosa PER): 0.70 | Mean FICI (P. aeruginosa; with Tob, isolate 20 P. aeruginosa KPC-2): 0.97 | Mean FICI (P. aeruginosa; with Tob, isolate 21 P. aeruginosa KPC-2): 0.97 | Mean FICI (E. coli; with Col, isolate 4 E. coli Basal MICs): 1.35 | Mean FICI (E. coli; with Col, isolate 5 E. coli CTX-M-15): 1.23 | Mean FICI (E. coli; with Col, isolate 6 E. coli TEM-4): 1.26 | Mean FICI (E. coli; with Col, isolate 7 E. coli SHV-12): 1.66 | Mean FICI (E. coli; with Col, isolate 8 E. coli SHV-2): 1.54 | Mean FICI (E. coli; with Lev, isolate 5 E. coli CTX-M-15): 1.05 | Mean FICI (E. coli; with Lev, isolate 6 E. coli TEM-4): 1.05 | Mean FICI (E. coli; with Lev, isolate 7 E. coli SHV-12): 1.18 | Mean FICI (E. coli; with Lev, isolate 8 E. coli SHV-2): 1.11 | Mean FICI (E. coli; with Tig, isolate 4 E. coli Basal MICs): 1.41 | Mean FICI (E. coli; with Tig, isolate 5 E. coli CTX-M-15): 1.12 | Mean FICI (E. coli; with Tig, isolate 6 E. coli TEM-4): 1.27 | Mean FICI (E. coli; with Tig, isolate 7 E. coli SHV-12): 0.95 | Mean FICI (E. coli; with Tig, isolate 8 E. coli SHV-2): 1.10 | Mean FICI (E. coli; with Tob, isolate 5 E. coli CTX-M-15): 1.05 | Mean FICI (E. coli; with Tob, isolate 6 E. coli TEM-4): 0.99 | Mean FICI (E. coli; with Tob, isolate 7 E. coli SHV-12): 1.19 | Mean FICI (E. coli; with Tob, isolate 8 E. coli SHV-2): 0.91 | Mean FICI (S. aureus; with Lev, isolate 22 S. aureus Basal MICs): 0.98 | Mean FICI (S. aureus; with Lev, isolate 23 S. aureus Basal MICs, Penicillinase+): 1.46 | Mean FICI (S. aureus; with Lev, isolate 24 S. aureus Basal MICs, Penicillinase +): 1.21 | Mean FICI (S. aureus; with Lzd, isolate 22 S. aureus Basal MICs): 1.43 | Mean FICI (S. aureus; with Lzd, isolate 23 S. aureus Basal MICs, Penicillinase+): 1.10 | Mean FICI (S. aureus; with Lzd, isolate 24 S. aureus Basal MICs, Penicillinase +): 1.32 | Mean FICI (S. aureus; with Tig, isolate 22 S. aureus Basal MICs): 1.13 | Mean FICI (S. aureus; with Tig, isolate 23 S. aureus Basal MICs, Penicillinase+): 1.27 | Mean FICI (S. aureus; with Tig, isolate 24 S. aureus Basal MICs, Penicillinase +): 1.11 | Mean FICI (S. aureus; with Tob, isolate 22 S. aureus Basal MICs): 1.60 | Mean FICI (S. aureus; with Tob, isolate 23 S. aureus Basal MICs, Penicillinase+): 0.86 | Mean FICI (S. aureus; with Tob, isolate 24 S. aureus Basal MICs, Penicillinase +): 0.84 | Mean FICI (S. aureus; with Van, isolate 22 S. aureus Basal MICs): 1.23 | Mean FICI (S. aureus; with Van, isolate 23 S. aureus Basal MICs, Penicillinase+): 0.99 | Mean FICI (S. aureus; with Van, isolate 24 S. aureus Basal MICs, Penicillinase +): 1.24
